Experimental data as given in patent US8188059B2, “Compounds and methods for modulating expression of GCGR” (Isis Pharmaceuticals, Inc., priority 2006, dated 2012).
Strand notation (5' to 3'): a small letter for the sugar, then the base; units joined by * are phosphorothioate-linked, units joined directly phosphodiester-linked; [ ] holds rarer units or linkages, { } end groups; capitals alone tell only the bases. e = 2'-O-(2-methoxyethyl) (MOE); [5mC] = 5-methylcytosine; d = 2'-deoxy (DNA)

System: PCSK9 mRNA
Assay type: cell-based, human
Settings: Hep3B cells, 100 nM, relative to untreated control cells; for % Inhib (PCSK9 mRNA): 0 = no reduction observed
Description: When cells reached appropriate confluency, they were treated with oligonucleotide using LIPOFECTIN® as described. […] Cells were treated and data were obtained in duplicate or triplicate. […] Cells were harvested 16-24 hours after oligonucleotide treatment.
Short antisense compounds targeted to a PCSK9 nucleic acid were tested for their effects on PCSK9 mRNA in vitro. The Isis No, gapmer motif and SEQ ID NO of each short antisense compound are shown again in Table 75. Cultured Hep3B cells were treated with 100 nM of short antisense compound. 5-10-5 MOE gapmers targeted to a PCSK9 nucleic acid were used as positive controls. After the treatment period, RNA was isolated from the cells and PCSK9 mRNA levels were measured by quantitative real-time PCR, as described herein. PCSK9 mRNA levels were adjusted according to total RNA content as measured by RIBOGREEN®. Results are presented in Table 75 as percent inhibition of PCSK9 (% Inhib), relative to untreated control cells.

Row | Substance | % Inhib (PCSK9 mRNA) [%] | % Inhibition Range (PCSK9 mRNA)
1 | 400297 (antisense eA*eT*dG*dG*dG*dG*d[5mC]*dA*dA*d[5mC]*dT*dT*e[5mC]*eA) [compound 400297] | 0 | –
2 | 400298 (antisense e[5mC]*eA*dT*dG*dG*dG*dG*d[5mC]*dA*dA*d[5mC]*dT*eT*e[5mC]) [compound 400298] | 0 | –
3 | 400299 (antisense eA*e[5mC]*dA*dT*dG*dG*dG*dG*d[5mC]*dA*dA*d[5mC]*eT*eT) [compound 400299] | 0 | –
4 | 400300 (antisense eG*eG*dG*dA*dT*dG*d[5mC]*dT*d[5mC]*dT*dG*dG*eG*e[5mC]) [compound 400300] | 9 | –
5 | 400301 (antisense e[5mC]*eG*d[5mC]*dT*d[5mC]*d[5mC]*dA*dG*dG*dT*dT*d[5mC]*e[5mC]*eA) [compound 400301] | 27 | 20-30%
6 | 400302 (antisense eG*eA*dT*dA*d[5mC]*dA*d[5mC]*d[5mC]*dT*d[5mC]*d[5mC]*dA*e[5mC]*e[5mC]) [compound 400302] | 0 | –
7 | 400303 (antisense eA*eG*dA*dT*dA*d[5mC]*dA*d[5mC]*d[5mC]*dT*d[5mC]*d[5mC]*eA*e[5mC]) [compound 400303] | 0 | –
8 | 400304 (antisense eG*eA*dG*dA*dT*dA*d[5mC]*dA*d[5mC]*d[5mC]*dT*d[5mC]*e[5mC]*eA) [compound 400304] | 11 | 10-20%
9 | 400305 (antisense eG*e[5mC]*d[5mC]*dT*dG*dT*d[5mC]*dT*dG*dT*dG*dG*eA*eA) [compound 400305] | 38 | 30-40%
10 | 400306 (antisense e[5mC]*eT*dG*dT*d[5mC]*dA*d[5mC]*dA*d[5mC]*dT*dT*dG*e[5mC]*eT) [compound 400306] | 40 | 40-50%
11 | 400310 (eT*e[5mC]*d[5mC]*d[5mC]*dG*dG*d[5mC]*d[5mC]*dG*d[5mC]*dT*dG*eA*e[5mC]; antisense) [compound 400310] | 8 | –
12 | 400311 (eA*eT*d[5mC]*d[5mC]*d[5mC]*dG*dG*d[5mC]*d[5mC]*dG*d[5mC]*dT*eG*eA; antisense) [compound 400311] | 18 | 10-20%
13 | 400312 (e[5mC]*eA*dT*d[5mC]*d[5mC]*d[5mC]*dG*dG*d[5mC]*d[5mC]*dG*d[5mC]*eT*eG; antisense) [compound 400312] | 28 | 20-30%
14 | 400313 (eG*e[5mC]*dA*dT*d[5mC]*d[5mC]*d[5mC]*dG*dG*d[5mC]*d[5mC]*dG*e[5mC]*eT; antisense) [compound 400313] | 10 | 10-20%
15 | 400314 (eG*eT*dG*d[5mC]*d[5mC]*d[5mC]*dT*dT*d[5mC]*d[5mC]*d[5mC]*dT*eT*eG; antisense) [compound 400314] | 26 | 20-30%
16 | 400315 (eA*eT*dG*dA*dG*dG*dG*dT*dG*d[5mC]*d[5mC]*dG*e[5mC]*eT; antisense) [compound 400315] | 0 | –
17 | 400316 (eT*eA*dT*dG*dA*dG*dG*dG*dT*dG*d[5mC]*d[5mC]*eG*e[5mC]; antisense) [compound 400316] | 8 | –
18 | 400317 (e[5mC]*eT*dA*dT*dG*dA*dG*dG*dG*dT*dG*d[5mC]*e[5mC]*eG; antisense) [compound 400317] | 7 | –
19 | 400318 (e[5mC]*e[5mC]*dT*dA*dT*dG*dA*dG*dG*dG*dT*dG*e[5mC]*e[5mC]; antisense) [compound 400318] | 26 | 20-30%
20 | 400319 (e[5mC]*eG*dA*dA*dT*dA*dA*dA*d[5mC]*dT*d[5mC]*d[5mC]*eA*eG; antisense) [compound 400319] | 0 | –
21 | 400320 (e[5mC]*e[5mC]*dG*dA*dA*dT*dA*dA*dA*d[5mC]*dT*d[5mC]*e[5mC]*eA; antisense) [compound 400320] | 0 | –
22 | 400321 (eT*e[5mC]*d[5mC]*dG*dA*dA*dT*dA*dA*dA*d[5mC]*dT*e[5mC]*e[5mC]; antisense) [compound 400321] | 0 | –
23 | 400322 (eT*eT*d[5mC]*d[5mC]*dG*dA*dA*dT*dA*dA*dA*d[5mC]*eT*e[5mC]; antisense) [compound 400322] | 0 | –

Row | Substance | % Inhib (PCSK9 mRNA) [%] | % Inhibition Range (PCSK9 mRNA)
24 | 400323 (eG*e[5mC]*d[5mC]*dA*dG*dG*dG*dG*d[5mC]*dA*dG*d[5mC]*eA*eG; antisense) [compound 400323] | 0 | –
25 | 400324 (eG*eA*dG*dT*dA*dG*dA*dG*dG*d[5mC]*dA*dG*eG*e[5mC]; antisense) [compound 400324] | 7 | –
26 | 400325 (e[5mC]*e[5mC]*d[5mC]*d[5mC]*dA*dA*dA*dG*dT*d[5mC]*d[5mC]*d[5mC]*e[5mC]*eA; antisense) [compound 400325] | 4 | –
27 | 400326 (eT*e[5mC]*d[5mC]*d[5mC]*d[5mC]*dA*dA*dA*dG*dT*d[5mC]*d[5mC]*e[5mC]*e[5mC]; antisense) [compound 400326] | 0 | –
28 | 400328 (eA*e[5mC]*dG*dT*dG*dG*dG*d[5mC]*dA*dG*d[5mC]*dA*eG*e[5mC]; antisense) [compound 400328] | 13 | 10-20%
29 | 400329 (e[5mC]*eA*d[5mC]*dG*dT*dG*dG*dG*d[5mC]*dA*dG*d[5mC]*eA*eG; antisense) [compound 400329] | 14 | 10-20%
30 | 400332 (e[5mC]*eA*dG*dG*dG*dA*dA*d[5mC]*d[5mC]*dA*dG*dG*e[5mC]*e[5mC]; antisense) [compound 400332] | 0 | –
31 | 400333 (eT*e[5mC]*dA*dG*dG*dG*dA*dA*d[5mC]*d[5mC]*dA*dG*eG*e[5mC]; antisense) [compound 400333] | 0 | –
32 | 400334 (e[5mC]*eT*d[5mC]*dA*dG*dG*dG*dA*dA*d[5mC]*d[5mC]*dA*eG*eG; antisense) [compound 400334] | 0 | –
33 | 400335 (e[5mC]*e[5mC]*dT*d[5mC]*dA*dG*dG*dG*dA*dA*d[5mC]*d[5mC]*eA*eG; antisense) [compound 400335] | 0 | –
34 | 400336 (eT*e[5mC]*d[5mC]*dT*d[5mC]*dA*dG*dG*dG*dA*dA*d[5mC]*e[5mC]*eA; antisense) [compound 400336] | 4 | –
35 | 400337 (eG*eT*d[5mC]*d[5mC]*dT*d[5mC]*dA*dG*dG*dG*dA*dA*e[5mC]*e[5mC]; antisense) [compound 400337] | 0 | –
36 | 400338 (eG*eG*dT*d[5mC]*d[5mC]*dT*d[5mC]*dA*dG*dG*dG*dA*eA*e[5mC]; antisense) [compound 400338] | 9 | –
37 | 400339 (eT*eG*dG*dT*d[5mC]*d[5mC]*dT*d[5mC]*dA*dG*dG*dG*eA*eA; antisense) [compound 400339] | 0 | –
38 | 400340 (e[5mC]*eT*dG*dG*dT*d[5mC]*d[5mC]*dT*d[5mC]*dA*dG*dG*eG*eA; antisense) [compound 400340] | 0 | –
39 | 400341 (eG*e[5mC]*dT*dG*dG*dT*d[5mC]*d[5mC]*dT*d[5mC]*dA*dG*eG*eG; antisense) [compound 400341] | 0 | –
40 | 400342 (eG*eT*dG*d[5mC]*dT*dG*dG*dG*dG*dG*dG*d[5mC]*eA*eG; antisense) [compound 400342] | 0 | –
41 | 400343 (eG*eG*dT*dG*d[5mC]*dT*dG*dG*dG*dG*dG*dG*e[5mC]*eA; antisense) [compound 400343] | 0 | –
42 | 400344 (eG*eG*dG*dT*dG*d[5mC]*dT*dG*dG*dG*dG*dG*eG*e[5mC]; antisense) [compound 400344] | 0 | –
43 | 400345 (eT*eG*dG*dG*dT*dG*d[5mC]*dT*dG*dG*dG*dG*eG*eG; antisense) [compound 400345] | 0 | –
44 | 400346 (eG*eA*dG*d[5mC]*dA*dG*d[5mC]*dT*d[5mC]*dA*dG*d[5mC]*eA*eG; antisense) [compound 400346] | 5 | –
45 | 400347 (antisense eG*eG*dA*dG*d[5mC]*dA*dG*d[5mC]*dT*d[5mC]*dA*dG*e[5mC]*eA) [compound 400347] | 0 | –
46 | 400348 (antisense eT*eG*dG*dA*dG*d[5mC]*dA*dG*d[5mC]*dT*d[5mC]*dA*eG*e[5mC]) [compound 400348] | 0 | –
